Measured values published in ChEMBL document CHEMBL1201862, “PubChem BioAssay data set” (2004).
Calls of active or inactive are those of the source.

Experiments:
[1] = molecular target: Prothrombin (Bos taurus, UniProt P00735); assay: thrombin inhibition, dose response, biochemical, fluorescence polarization, uHTS hits (AID 602369); format: functional
[2] = molecular target: 72 kDa type IV collagenase (Homo sapiens, UniProt P08253); assay: Dose Response validation of uHTS RPN11 inhibitor hits using a MMP-2 Fluorescence assay.; format: functional
72 kDa type IV collagenase, sequence (P08253 whole entry): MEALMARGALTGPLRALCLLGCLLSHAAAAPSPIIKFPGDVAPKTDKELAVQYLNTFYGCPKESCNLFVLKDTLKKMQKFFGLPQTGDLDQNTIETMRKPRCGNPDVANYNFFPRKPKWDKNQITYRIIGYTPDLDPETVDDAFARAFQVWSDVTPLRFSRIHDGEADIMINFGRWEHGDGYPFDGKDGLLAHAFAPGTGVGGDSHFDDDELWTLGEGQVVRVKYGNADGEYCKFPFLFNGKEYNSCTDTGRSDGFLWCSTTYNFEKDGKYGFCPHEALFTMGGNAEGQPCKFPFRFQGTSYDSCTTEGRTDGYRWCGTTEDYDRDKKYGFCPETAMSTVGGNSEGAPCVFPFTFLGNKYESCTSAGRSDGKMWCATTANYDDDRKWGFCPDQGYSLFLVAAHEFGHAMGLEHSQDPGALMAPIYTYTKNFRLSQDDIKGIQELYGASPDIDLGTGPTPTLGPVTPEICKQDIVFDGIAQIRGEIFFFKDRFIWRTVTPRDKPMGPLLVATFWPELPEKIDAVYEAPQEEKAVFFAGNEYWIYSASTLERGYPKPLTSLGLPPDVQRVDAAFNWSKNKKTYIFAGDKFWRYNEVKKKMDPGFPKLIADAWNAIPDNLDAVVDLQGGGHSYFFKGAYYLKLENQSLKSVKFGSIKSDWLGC

[3] = molecular target: Keap1/Nrf2 (Homo sapiens, UniProt Q14145); assay: Keap1-Nrf2 protein-protein interaction inhibitors, dose response, biochemical, fluorescence polarization, cherry-picked samples (AID 588683)
Keap1/Nrf2, sequence (Q16236 whole entry): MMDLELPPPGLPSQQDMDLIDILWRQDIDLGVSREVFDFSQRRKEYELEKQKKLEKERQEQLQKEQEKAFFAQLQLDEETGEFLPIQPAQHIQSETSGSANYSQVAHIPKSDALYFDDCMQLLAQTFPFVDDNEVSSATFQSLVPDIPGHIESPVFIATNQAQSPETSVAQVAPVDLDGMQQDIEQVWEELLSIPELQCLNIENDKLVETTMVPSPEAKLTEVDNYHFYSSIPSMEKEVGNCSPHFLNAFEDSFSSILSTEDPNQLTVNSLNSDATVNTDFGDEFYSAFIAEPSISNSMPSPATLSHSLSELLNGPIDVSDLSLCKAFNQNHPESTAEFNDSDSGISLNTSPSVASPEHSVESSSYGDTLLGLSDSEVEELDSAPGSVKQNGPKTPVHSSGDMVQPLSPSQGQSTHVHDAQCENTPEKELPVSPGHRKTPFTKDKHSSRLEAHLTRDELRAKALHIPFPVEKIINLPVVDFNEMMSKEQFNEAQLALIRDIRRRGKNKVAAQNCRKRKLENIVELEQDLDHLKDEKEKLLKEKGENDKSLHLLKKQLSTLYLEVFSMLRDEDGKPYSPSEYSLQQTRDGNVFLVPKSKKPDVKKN
Keap1/Nrf2, sequence (Q14145 whole entry): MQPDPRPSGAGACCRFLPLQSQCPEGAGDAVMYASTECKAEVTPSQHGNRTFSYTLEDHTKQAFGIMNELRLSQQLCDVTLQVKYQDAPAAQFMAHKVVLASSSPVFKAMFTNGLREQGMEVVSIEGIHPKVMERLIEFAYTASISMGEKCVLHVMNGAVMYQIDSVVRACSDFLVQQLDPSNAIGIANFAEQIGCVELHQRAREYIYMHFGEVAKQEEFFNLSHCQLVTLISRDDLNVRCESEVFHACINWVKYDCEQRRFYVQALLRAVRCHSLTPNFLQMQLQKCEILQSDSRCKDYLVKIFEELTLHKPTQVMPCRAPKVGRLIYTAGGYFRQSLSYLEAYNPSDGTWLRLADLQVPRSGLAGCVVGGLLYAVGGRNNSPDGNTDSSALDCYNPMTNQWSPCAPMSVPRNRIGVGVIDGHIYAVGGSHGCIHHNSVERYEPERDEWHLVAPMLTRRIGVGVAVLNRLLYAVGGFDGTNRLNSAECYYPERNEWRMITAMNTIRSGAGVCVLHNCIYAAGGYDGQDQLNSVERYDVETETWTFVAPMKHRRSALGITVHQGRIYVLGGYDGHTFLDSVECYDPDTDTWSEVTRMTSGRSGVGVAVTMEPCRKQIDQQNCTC

[4] = molecular target: T1, Histone-lysine N-methyltransferase NSD2 (Homo sapiens, UniProt O96028); format: biochemical
T1 sequence (O96028 whole entry): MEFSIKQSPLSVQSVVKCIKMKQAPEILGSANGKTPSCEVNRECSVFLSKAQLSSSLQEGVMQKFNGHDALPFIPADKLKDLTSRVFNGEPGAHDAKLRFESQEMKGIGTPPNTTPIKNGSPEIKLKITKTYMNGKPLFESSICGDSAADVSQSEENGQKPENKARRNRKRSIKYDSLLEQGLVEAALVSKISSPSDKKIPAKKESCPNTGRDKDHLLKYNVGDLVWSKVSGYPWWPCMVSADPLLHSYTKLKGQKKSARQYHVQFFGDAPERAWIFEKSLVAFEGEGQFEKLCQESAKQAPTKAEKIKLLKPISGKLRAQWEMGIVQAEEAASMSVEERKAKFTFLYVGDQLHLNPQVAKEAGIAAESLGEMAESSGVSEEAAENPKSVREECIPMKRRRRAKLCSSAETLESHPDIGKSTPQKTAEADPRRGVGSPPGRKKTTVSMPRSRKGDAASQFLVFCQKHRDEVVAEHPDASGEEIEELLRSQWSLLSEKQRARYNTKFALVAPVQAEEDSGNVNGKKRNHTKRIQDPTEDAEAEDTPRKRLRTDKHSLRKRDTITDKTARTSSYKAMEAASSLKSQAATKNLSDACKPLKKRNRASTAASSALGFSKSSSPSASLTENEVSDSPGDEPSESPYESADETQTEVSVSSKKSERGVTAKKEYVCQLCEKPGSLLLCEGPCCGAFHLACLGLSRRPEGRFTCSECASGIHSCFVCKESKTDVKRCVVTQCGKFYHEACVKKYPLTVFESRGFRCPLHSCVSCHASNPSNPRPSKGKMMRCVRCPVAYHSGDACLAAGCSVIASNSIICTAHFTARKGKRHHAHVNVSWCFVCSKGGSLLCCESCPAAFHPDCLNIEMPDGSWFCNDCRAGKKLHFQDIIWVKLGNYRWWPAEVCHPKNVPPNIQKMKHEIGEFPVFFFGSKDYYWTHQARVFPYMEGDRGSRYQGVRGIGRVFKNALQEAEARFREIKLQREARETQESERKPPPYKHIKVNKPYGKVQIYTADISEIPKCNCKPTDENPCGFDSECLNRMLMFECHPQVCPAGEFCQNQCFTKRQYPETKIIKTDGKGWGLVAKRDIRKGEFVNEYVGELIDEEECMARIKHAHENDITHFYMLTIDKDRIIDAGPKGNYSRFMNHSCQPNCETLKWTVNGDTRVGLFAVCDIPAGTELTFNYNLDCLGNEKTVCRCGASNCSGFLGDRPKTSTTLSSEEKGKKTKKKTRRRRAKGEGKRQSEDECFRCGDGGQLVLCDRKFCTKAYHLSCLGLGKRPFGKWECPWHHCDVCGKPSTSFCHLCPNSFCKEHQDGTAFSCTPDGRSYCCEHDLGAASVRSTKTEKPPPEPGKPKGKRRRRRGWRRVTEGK

[5] = molecular target: 26S proteasome non-ATPase regulatory subunit 14 (Homo sapiens, UniProt O00487); assay: inhibition of proteasome subunit RPN11 – biochemical, fluorescence polarization, uHTS hits, confirmation (AID 602368); format: functional
26S proteasome non-ATPase regulatory subunit 14, sequence (O00487 whole entry): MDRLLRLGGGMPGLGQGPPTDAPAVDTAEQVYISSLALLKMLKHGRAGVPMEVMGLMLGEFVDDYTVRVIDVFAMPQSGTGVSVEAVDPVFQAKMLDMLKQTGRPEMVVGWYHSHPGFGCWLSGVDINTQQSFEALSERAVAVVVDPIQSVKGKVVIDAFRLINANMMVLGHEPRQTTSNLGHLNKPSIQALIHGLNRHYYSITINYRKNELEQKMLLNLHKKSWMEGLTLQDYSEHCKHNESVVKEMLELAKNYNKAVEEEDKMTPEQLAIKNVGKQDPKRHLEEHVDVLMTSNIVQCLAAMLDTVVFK

[6] = tested on: HeLa; assay: HeLa cell cytotoxicity, dose response, cytotoxicity control for MITF activator project, CellTiter-Glo luminescence, cherry-pick samples (AID 540259); format: functional, cell-based; details: Homo sapiens
[7] = Luminescence Cell-Based Dose Confirmation HTS to Identify Inhibitors of Platelet Dense Granule Release. [Related pubchem assays: 1663 (Primary HTS), 1678 (Summary of Project)]; format: functional
[8] = molecular target: Luciferin 4-monooxygenase (Photinus pyralis, UniProt P08659); assay: firefly luciferase enzyme inhibitors, dose response, biochemical, luminescence (AID 1891)
Luciferin 4-monooxygenase, sequence (P08659 whole entry): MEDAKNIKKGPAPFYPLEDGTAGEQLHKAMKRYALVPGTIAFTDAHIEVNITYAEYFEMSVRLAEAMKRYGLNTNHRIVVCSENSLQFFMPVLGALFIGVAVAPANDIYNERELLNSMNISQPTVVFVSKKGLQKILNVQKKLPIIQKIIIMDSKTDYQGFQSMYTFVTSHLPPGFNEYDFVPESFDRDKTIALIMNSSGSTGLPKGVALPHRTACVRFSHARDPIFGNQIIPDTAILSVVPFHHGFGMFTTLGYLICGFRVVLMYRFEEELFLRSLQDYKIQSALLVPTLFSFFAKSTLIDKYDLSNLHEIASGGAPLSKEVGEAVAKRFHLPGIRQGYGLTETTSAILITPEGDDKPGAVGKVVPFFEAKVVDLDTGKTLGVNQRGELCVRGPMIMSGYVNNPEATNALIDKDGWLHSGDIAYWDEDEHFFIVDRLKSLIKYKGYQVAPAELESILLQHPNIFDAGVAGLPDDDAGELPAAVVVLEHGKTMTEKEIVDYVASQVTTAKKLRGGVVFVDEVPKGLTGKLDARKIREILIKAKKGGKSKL

[9] = molecular target: Genome polyprotein (dengue virus type 2, UniProt P29990); assay: Dengue-2 NS5 methyltransferase inhibitors, primary screen, biochemical, confirmation dose response (AID 588689); format: functional
Genome polyprotein, sequence (P29990 2492-3391 limits assumed): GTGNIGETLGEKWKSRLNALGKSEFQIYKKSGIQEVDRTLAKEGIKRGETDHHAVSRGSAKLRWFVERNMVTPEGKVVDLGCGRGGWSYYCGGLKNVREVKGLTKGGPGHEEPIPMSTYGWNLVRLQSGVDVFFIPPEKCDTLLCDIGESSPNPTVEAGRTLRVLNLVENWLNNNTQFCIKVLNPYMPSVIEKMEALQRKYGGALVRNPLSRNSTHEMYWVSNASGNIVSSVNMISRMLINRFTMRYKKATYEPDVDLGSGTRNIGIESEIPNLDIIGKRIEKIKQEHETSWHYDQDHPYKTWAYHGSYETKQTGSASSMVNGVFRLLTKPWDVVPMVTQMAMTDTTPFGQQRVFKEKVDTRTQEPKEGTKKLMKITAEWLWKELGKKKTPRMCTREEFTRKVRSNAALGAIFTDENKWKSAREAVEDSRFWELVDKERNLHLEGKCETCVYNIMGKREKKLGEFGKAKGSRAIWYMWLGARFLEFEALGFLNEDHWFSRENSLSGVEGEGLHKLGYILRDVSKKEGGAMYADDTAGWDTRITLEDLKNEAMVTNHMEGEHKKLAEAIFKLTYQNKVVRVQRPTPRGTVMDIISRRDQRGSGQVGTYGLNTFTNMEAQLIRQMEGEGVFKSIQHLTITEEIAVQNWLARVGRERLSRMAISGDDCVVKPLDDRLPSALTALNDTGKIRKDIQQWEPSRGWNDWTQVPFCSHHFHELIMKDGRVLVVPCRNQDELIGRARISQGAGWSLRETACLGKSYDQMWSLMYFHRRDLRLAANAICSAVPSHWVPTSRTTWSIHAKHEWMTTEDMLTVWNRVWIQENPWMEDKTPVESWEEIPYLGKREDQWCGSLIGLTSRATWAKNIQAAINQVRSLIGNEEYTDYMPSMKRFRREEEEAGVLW

[10] = molecular target: T2, Hexokinase HKDC1 (Homo sapiens, UniProt Q2TB90); assay: HKDC1 hexokinase inhibitors, dose response, biochemical, W721R variant (AID 504729); format: functional
T2 sequence (Q2TB90 whole entry): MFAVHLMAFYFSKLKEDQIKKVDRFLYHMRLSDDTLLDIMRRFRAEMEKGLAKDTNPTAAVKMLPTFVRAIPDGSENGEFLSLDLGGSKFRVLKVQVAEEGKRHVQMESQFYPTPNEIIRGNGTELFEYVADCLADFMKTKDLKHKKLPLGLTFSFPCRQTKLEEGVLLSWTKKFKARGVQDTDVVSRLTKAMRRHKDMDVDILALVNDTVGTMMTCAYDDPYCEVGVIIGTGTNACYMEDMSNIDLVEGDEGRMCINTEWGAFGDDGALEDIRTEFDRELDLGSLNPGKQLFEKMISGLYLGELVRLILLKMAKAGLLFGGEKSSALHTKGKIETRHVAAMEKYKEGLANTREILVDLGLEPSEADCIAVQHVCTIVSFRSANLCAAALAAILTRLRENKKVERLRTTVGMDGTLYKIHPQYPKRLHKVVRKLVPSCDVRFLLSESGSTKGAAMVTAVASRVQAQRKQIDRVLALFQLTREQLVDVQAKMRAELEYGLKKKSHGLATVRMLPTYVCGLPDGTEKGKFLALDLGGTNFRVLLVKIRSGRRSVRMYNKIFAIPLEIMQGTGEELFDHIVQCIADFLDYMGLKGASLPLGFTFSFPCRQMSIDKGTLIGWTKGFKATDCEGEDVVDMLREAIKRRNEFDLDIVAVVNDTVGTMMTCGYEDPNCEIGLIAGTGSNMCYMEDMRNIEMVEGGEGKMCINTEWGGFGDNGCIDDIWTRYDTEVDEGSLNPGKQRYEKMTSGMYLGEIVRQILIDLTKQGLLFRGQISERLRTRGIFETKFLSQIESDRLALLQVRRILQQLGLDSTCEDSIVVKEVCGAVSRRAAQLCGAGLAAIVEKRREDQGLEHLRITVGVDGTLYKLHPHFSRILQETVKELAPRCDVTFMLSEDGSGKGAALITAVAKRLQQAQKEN

[11] = molecular target: Nonstructural protein 1 (Influenza A virus, UniProt Q194T2); format: functional, Influenza A virus (A/California/07/2009(H1N1))
Nonstructural protein 1, sequence (Q194T2 whole entry): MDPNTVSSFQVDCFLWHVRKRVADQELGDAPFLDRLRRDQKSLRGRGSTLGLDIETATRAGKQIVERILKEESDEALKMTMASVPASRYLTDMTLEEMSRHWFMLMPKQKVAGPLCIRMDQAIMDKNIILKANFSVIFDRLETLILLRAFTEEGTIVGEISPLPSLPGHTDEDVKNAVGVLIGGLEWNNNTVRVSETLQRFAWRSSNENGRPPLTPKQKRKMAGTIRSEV

[12] = tested on: Vero; assay: Vero cell cytotoxicity, cytotoxicity control for flavivirus capping enzyme inhibitors (AID 588742); format: functional; details: Chlorocebus sabaeus

C/C(C/C(C)=C1/SC(=S)NC1=O)=C1\SC(=S)NC1=O
IC50 [1]: 87.5 µM (active) | IC50 [2]: 0.302 µM (active) | AC50 [3]: > 52 µM (inactive) | AC50 [4]: 7.93 µM (active) | IC50 [5]: 43.6 µM (active)

CC1(C)CC(=O)c2c(O)cc(OCc3ccc(Br)cc3)cc2O1
AC50 [6]: 70.4 µM (active)

CSc1nc(N)n2nc(-c3ccc(Cl)cc3)cc2n1
EC50 [7]: 3.88 µM (active) | EC50 [8]: 0.464 µM (active) | AC50 [6]: 71.6 µM (active)

Cc1ccc(SC2=C(N(C)C)C(=O)c3ccccc3C2=O)cc1
IC50 [9]: 65 µM (active) | IC50 [10]: 6.72 µM (active) | IC50 [11]: 8.5 µM (active) | CC50 [12]: 22.1 µM (active)
